Experimental data: patent US12043612B2, “Methods of manufacturing a bifunctional compound, ultrapure forms of the bifunctional compound, and dosage forms comprising the same” (Arvinas Operations, Inc., priority 2020, dated 2024)
≈ marks a conversion by molar mass, not a printed value. Like-named read-outs stand apart in the source and are kept apart here.

How the values were obtained:
[1] = Solubility of Compound A in solvents at 24° C. ± 3° C., 24 h; assay type: physicochemical; details: organic solvent or mixture, thermodynamic from solid
Protocol: (§1) This batch was prepared for use in the 28-day good laboratory practice (GLP) toxicology studies using the same synthetic scheme and processing employed in preparation of active pharmaceutical ingredient (API) to be used in the clinical drug product.

pKa of Compound A = assay type: physicochemical
Protocol: as §1

[2] = Solubility in pH 6.5 simulated intestinal fluid (SIF); assay type: physicochemical
MDCK cells = test: In vitro permeability in MDCK cells; assay type: in vitro ADME
[3] = Glass transition and recrystallization temperature of amorphous solids; assay type: physicochemical
Protocol: Thus, while crystals of Compound A are quite stable, there is a significant barrier to transforming to a crystalline state from an amorphous form. Indeed, a ramped temperature increase of a partially-crystalline sample does eventually lead to a recrystallization event, but not until a temperature of 200-220° C. is achieved. […] As discussed below, this robust resistance to crystallization is preserved even in the presence of water.
The amorphous form of pure Compound A is robust with a high Tg and even higher recrystallization temperature. The glass transition temperature does decrease under the plasticizing conditions of high humidity. However, the value is still well above the commonly applied 40-50° C. difference between Tg and any temperature the clinical presentation will encounter.

BCS designation = details: low solubility, low permeability
[4] = Oral bioavailability and hepatic clearance with colloid-forming, precipitation-resistant solutions; assay type: in vivo

SMILES: N#Cc1ccc(O[C@H]2CC[C@H](NC(=O)c3ccc(N4CCC(CN5CCN(c6cc7c(cc6F)C(=O)N(C6CCC(=O)NC6=O)C7=O)CC5)CC4)nn3)CC2)cc1Cl (stereo partly drawn) [Compound A, N-[(1r,4r)-4-(3-chloro-4-cyanophenoxy)cyclohexyl]-6-[4-({4-[2-(2,6-dioxopiperidin-3-yl)-6-fluoro-1,3-dioxo-2,3-dihydro-1H-isoindol-5-yl]piperazin-1-yl}methyl)piperidin-1-yl]pyridazine-3-carboxamide]
- solubility at 24 h ([1]; Acetonitrile, read-out: Solubility, Conc. (mg/mL), 24 h): 0.79 mg/mL (≈ 973 µM)
- solubility at 24 h ([1]; Dichloromethane, read-out: Solubility, Conc. (mg/mL), 24 h): 25.1 mg/mL (≈ 30900 µM)
- solubility at 24 h ([1]; Dichloromethane/methanol, read-out: Solubility, Conc. (mg/mL), 24 h): 100 mg/mL (≈ 123000 µM)
- solubility at 24 h ([1]; Ethanol, read-out: Solubility, Conc. (mg/mL), 24 h): 0.08 mg/mL (≈ 98.5 µM)
- solubility at 24 h ([1]; Ethyl acetate, read-out: Solubility, Conc. (mg/mL), 24 h): 0.2 mg/mL (≈ 246 µM)
- solubility at 24 h ([1]; Methanol, read-out: Solubility, Conc. (mg/mL), 24 h): 0.29 mg/mL (≈ 357 µM)
- solubility at 24 h ([1]; Polyethylene glycol-300, read-out: Solubility, Conc. (mg/mL), 24 h): 2.8 mg/mL (≈ 3450 µM)
- solubility at 24 h ([1]; Propylene glycol, read-out: Solubility, Conc. (mg/mL), 24 h): 0.75 mg/mL (≈ 923 µM)
- pKa1 (pKa of Compound A): pKa1 = 6.8
- pKa2 (pKa of Compound A): pKa2 = 2.7
- solubility ([2]; fassif, thermodynamic from solid, pH 6.5 simulated intestinal fluid (SIF), read-out: crystalline solid's solubility): 1.2 µg/mL (≈ 1.48 µM)
- solubility ([2]; pH 6.5, fassif, read-out: amorphous solubility in SIF): 30 µg/mL (≈ 36.9 µM)
- in vitro permeability in MDCK cells (MDCK cells): low
- glass transition temperature (Tg) [3]: 146 °C
- temperature of recrystallization event ([3]; ramped temperature increase of a partially-crystalline sample): 200-220 °C
- BCS designation (BCS designation): BCS IV
- oral bioavailability ([4]; colloid-forming, precipitation-resistant solutions administered): modest
- hepatic clearance ([4]; in vivo): low
